Data published in PubChem BioAssay (NCI).
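Interpolation was linear, between the two tested concentrations surrounding the appropriate level; five concentrations were tested over 48 hours in 96-well plates. Definition used: TGI = concentration required for complete inhibition of growth.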

Experiments:
Test in all cases: NCI tumour cell line growth inhibition, 48 h
786-0 renal = system: 786-0 renal
A498 renal = system: A498 renal
A549 NSCLC = system: A549 NSCLC
ACHN renal = system: ACHN renal
BT-549 breast = system: BT-549 breast
CAKI-1 renal = system: CAKI-1 renal
CCRF-CEM leukemia = system: CCRF-CEM leukemia
COLO 205 colon = system: COLO 205 colon
DU-145 prostate = system: DU-145 prostate
EKVX NSCLC = system: EKVX NSCLC
HCC-2998 colon = system: HCC-2998 colon
HCT-116 colon = system: HCT-116 colon
HCT-15 colon = system: HCT-15 colon
HOP-62 NSCLC = system: HOP-62 NSCLC
HOP-92 NSCLC = system: HOP-92 NSCLC
HS 578T breast = system: HS 578T breast
HT29 colon = system: HT29 colon
IGROV1 ovarian = system: IGROV1 ovarian
K-562 leukemia = system: K-562 leukemia
KM12 colon = system: KM12 colon
LOX IMVI melanoma = system: LOX IMVI melanoma
M14 melanoma = system: M14 melanoma
MALME-3M melanoma = system: MALME-3M melanoma
MCF7 breast = system: MCF7 breast
MDA-MB-231 breast = system: MDA-MB-231 breast
MDA-MB-435 = system: MDA-MB-435
MDA-N = system: MDA-N
MOLT-4 leukemia = system: MOLT-4 leukemia
NCI-H226 lung = system: NCI-H226 lung
NCI-H23 lung = system: NCI-H23 lung
NCI-H460 lung = system: NCI-H460 lung
NCI-H522 lung = system: NCI-H522 lung
NCI/ADR-RES ovarian = system: NCI/ADR-RES ovarian
OVCAR-3 ovarian = system: OVCAR-3 ovarian
OVCAR-4 ovarian = system: OVCAR-4 ovarian
OVCAR-5 ovarian = system: OVCAR-5 ovarian
OVCAR-8 ovarian = system: OVCAR-8 ovarian
PC-3 prostate = system: PC-3 prostate
RPMI-8226 leukemia = system: RPMI-8226 leukemia
RXF 393 renal = system: RXF 393 renal
SF-268 CNS = system: SF-268 CNS
SF-295 CNS = system: SF-295 CNS
SF-539 CNS = system: SF-539 CNS
SK-MEL-2 melanoma = system: SK-MEL-2 melanoma
SK-MEL-28 melanoma = system: SK-MEL-28 melanoma
SK-MEL-5 melanoma = system: SK-MEL-5 melanoma
SK-OV-3 ovarian = system: SK-OV-3 ovarian
SN12C renal = system: SN12C renal
SNB-19 CNS = system: SNB-19 CNS
SNB-75 CNS = system: SNB-75 CNS
SW-620 colon = system: SW-620 colon
T-47D breast = system: T-47D breast
TK-10 renal = system: TK-10 renal
U251 CNS = system: U251 CNS
UACC-257 melanoma = system: UACC-257 melanoma
UO-31 renal = system: UO-31 renal
HL-60(TB) leukemia = system: HL-60(TB) leukemia
SR leukemia = system: SR leukemia
UACC-62 melanoma = system: UACC-62 melanoma

Oc1c(CN2CCOCC2)ccc2cccnc12
TGI (786-0 renal): > 10 µM | TGI (A498 renal): > 10 µM | TGI (A549 NSCLC): > 10 µM | TGI (ACHN renal): > 10 µM | TGI (BT-549 breast): 8.26 µM | TGI (CAKI-1 renal): > 10 µM | TGI (CCRF-CEM leukemia): 7.56 µM | TGI (COLO 205 colon): > 10 µM | TGI (DU-145 prostate): > 10 µM | TGI (EKVX NSCLC): > 10 µM | TGI (HCC-2998 colon): > 10 µM | TGI (HCT-116 colon): > 10 µM | TGI (HCT-15 colon): > 10 µM | TGI (HOP-62 NSCLC): > 10 µM | TGI (HOP-92 NSCLC): > 10 µM | TGI (HS 578T breast): > 10 µM | TGI (HT29 colon): > 10 µM | TGI (IGROV1 ovarian): > 10 µM | TGI (K-562 leukemia): > 10 µM | TGI (KM12 colon): > 10 µM | TGI (LOX IMVI melanoma): > 10 µM | TGI (M14 melanoma): > 10 µM | TGI (MALME-3M melanoma): > 10 µM | TGI (MCF7 breast): > 10 µM | TGI (MDA-MB-231 breast): > 10 µM | TGI (MDA-MB-435): > 10 µM | TGI (MDA-N): > 10 µM | TGI (MOLT-4 leukemia): > 10 µM | TGI (NCI-H226 lung): > 10 µM | TGI (NCI-H23 lung): > 10 µM | TGI (NCI-H460 lung): > 10 µM | TGI (NCI-H522 lung): 7.81 µM | TGI (NCI/ADR-RES ovarian): 6.6 µM | TGI (OVCAR-3 ovarian): > 10 µM | TGI (OVCAR-4 ovarian): > 10 µM | TGI (OVCAR-5 ovarian): > 10 µM | TGI (OVCAR-8 ovarian): > 10 µM | TGI (PC-3 prostate): > 10 µM | TGI (RPMI-8226 leukemia): > 10 µM | TGI (RXF 393 renal): > 10 µM | TGI (SF-268 CNS): > 10 µM | TGI (SF-295 CNS): > 10 µM | TGI (SF-539 CNS): > 10 µM | TGI (SK-MEL-2 melanoma): > 10 µM | TGI (SK-MEL-28 melanoma): > 10 µM | TGI (SK-MEL-5 melanoma): > 10 µM | TGI (SK-OV-3 ovarian): > 10 µM | TGI (SN12C renal): > 10 µM | TGI (SNB-19 CNS): > 10 µM | TGI (SNB-75 CNS): > 10 µM | TGI (SW-620 colon): > 10 µM | TGI (T-47D breast): > 10 µM | TGI (TK-10 renal): > 10 µM | TGI (U251 CNS): > 10 µM | TGI (UACC-257 melanoma): > 10 µM | TGI (UO-31 renal): > 10 µM

CN1CCC(O)(C(C)(C)C)CC1
TGI (786-0 renal): > 100 µM | TGI (A549 NSCLC): > 100 µM | TGI (ACHN renal): > 100 µM | TGI (BT-549 breast): > 100 µM | TGI (CAKI-1 renal): > 100 µM | TGI (CCRF-CEM leukemia): > 100 µM | TGI (COLO 205 colon): > 100 µM | TGI (DU-145 prostate): > 100 µM | TGI (EKVX NSCLC): > 100 µM | TGI (HCC-2998 colon): > 100 µM | TGI (HCT-116 colon): > 100 µM | TGI (HCT-15 colon): > 100 µM | TGI (HL-60(TB) leukemia): > 100 µM | TGI (HOP-62 NSCLC): > 100 µM | TGI (HS 578T breast): > 100 µM | TGI (HT29 colon): > 100 µM | TGI (IGROV1 ovarian): > 100 µM | TGI (K-562 leukemia): > 100 µM | TGI (KM12 colon): > 100 µM | TGI (LOX IMVI melanoma): > 100 µM | TGI (M14 melanoma): > 100 µM | TGI (MALME-3M melanoma): > 100 µM | TGI (MCF7 breast): > 100 µM | TGI (MDA-MB-231 breast): > 100 µM | TGI (MDA-MB-435): > 100 µM | TGI (MDA-N): > 100 µM | TGI (MOLT-4 leukemia): > 100 µM | TGI (NCI-H226 lung): > 100 µM | TGI (NCI-H23 lung): > 100 µM | TGI (NCI-H460 lung): > 100 µM | TGI (NCI/ADR-RES ovarian): > 100 µM | TGI (OVCAR-3 ovarian): > 100 µM | TGI (OVCAR-4 ovarian): > 100 µM | TGI (OVCAR-5 ovarian): > 100 µM | TGI (OVCAR-8 ovarian): > 100 µM | TGI (PC-3 prostate): > 100 µM | TGI (RPMI-8226 leukemia): > 100 µM | TGI (RXF 393 renal): > 100 µM | TGI (SF-268 CNS): > 100 µM | TGI (SF-295 CNS): > 100 µM | TGI (SK-MEL-2 melanoma): > 100 µM | TGI (SK-MEL-28 melanoma): > 100 µM | TGI (SK-MEL-5 melanoma): > 100 µM | TGI (SK-OV-3 ovarian): > 100 µM | TGI (SN12C renal): > 100 µM | TGI (SNB-19 CNS): > 100 µM | TGI (SNB-75 CNS): > 100 µM | TGI (SR leukemia): > 100 µM | TGI (SW-620 colon): > 100 µM | TGI (T-47D breast): > 100 µM | TGI (TK-10 renal): > 100 µM | TGI (U251 CNS): > 100 µM | TGI (UACC-257 melanoma): > 100 µM | TGI (UACC-62 melanoma): > 100 µM | TGI (UO-31 renal): > 100 µM
